Data from patent publication US20090111105A1 (priority 2007, published 2009).

Experiments:
androgen receptor (AR) = molecular target: T1, androgen receptor (AR) (Homo sapiens, UniProt P10275); settings: SH-SY5Y cells, 1f-pGI3 + pSG5AR, FIG. 8 and FIG. 10
T1 sequence (P10275 1-920): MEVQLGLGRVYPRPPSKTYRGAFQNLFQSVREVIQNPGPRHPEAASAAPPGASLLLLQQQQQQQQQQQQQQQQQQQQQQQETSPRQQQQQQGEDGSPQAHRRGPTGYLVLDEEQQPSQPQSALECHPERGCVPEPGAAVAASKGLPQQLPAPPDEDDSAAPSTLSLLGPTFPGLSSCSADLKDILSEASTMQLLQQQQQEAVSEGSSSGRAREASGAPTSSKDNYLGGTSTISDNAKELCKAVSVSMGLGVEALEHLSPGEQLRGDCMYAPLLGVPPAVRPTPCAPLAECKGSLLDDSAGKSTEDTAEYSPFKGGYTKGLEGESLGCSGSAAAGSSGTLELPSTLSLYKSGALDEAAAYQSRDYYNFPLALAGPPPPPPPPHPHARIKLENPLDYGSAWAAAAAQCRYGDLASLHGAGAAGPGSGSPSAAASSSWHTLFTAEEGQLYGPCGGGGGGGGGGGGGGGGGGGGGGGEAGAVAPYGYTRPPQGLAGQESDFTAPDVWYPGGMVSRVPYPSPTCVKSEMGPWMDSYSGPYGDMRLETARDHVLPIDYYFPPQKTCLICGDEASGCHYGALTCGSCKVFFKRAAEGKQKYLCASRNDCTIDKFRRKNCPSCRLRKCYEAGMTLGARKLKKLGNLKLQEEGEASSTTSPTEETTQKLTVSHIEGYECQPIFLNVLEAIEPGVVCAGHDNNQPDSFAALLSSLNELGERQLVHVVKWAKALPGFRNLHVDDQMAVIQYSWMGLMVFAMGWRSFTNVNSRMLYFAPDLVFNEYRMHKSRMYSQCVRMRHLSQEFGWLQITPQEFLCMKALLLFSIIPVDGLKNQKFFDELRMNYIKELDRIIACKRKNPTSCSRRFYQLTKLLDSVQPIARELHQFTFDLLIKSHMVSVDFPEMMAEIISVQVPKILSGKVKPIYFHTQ

prostate = settings: Arteaga-Silva et al. 2005; cited from earlier work
male sexual behaviour = settings: in comparison with testosterone; Arteaga-Silva et al. 2005; cited from earlier work

CCC(=O)O[C@H]1CC[C@H]2[C@@H]3CCC4=CC(=O)CC[C@]4(C)[C@H]3CC[C@]12C [testosterone propionate]
induction of reporter gene expression on the 1f-promoter (androgen receptor (AR)): very potent stimulation

C[C@]12CCC(=O)C[C@@H]1CC[C@@H]1[C@@H]2CC[C@]2(C)[C@@H](O)CC[C@@H]12 [DHT, dihydrotestosterone]
androgenic action on the prostate (prostate): very strong androgen | action on male sexual behaviour (male sexual behaviour): considerably less action
